Literature values as cited in patent publication US6959708B1, “Method for co-application of gases and drugs to potentiate their action in relieving headaches, angina and other ailments” (Capnia, Incorporated, priority 1999, dated 2005).
Like-named read-outs stand apart in the source and are kept apart here.

Experiments:
[1] = tested on: serotonin-induced bronchial smooth muscle contraction
[2] = tested on: transpulmonary gradient and pulmonary vascular resistance; settings: inhaled low dose
[3] = tested on: pulmonary hypertension; settings: in vivo
[4] = tested on: central and peripheral airways; settings: asthmatic adults
[5] = co-application of a 10% CO2 concentration
[6] = drug alone, without CO2 co-application

Row | Compound | inhibition of serotonin-induced bronchial smooth muscle contraction [1, 5] | inhibition of serotonin-induced bronchial smooth muscle contraction [1, 6] | also measured
1 | C[N+](C)(C)CCCCCC[N+](C)(C)C [hexamethonium] | 67% | 37% | –
2 | nitric oxide [NO] | – | – | pulmonary vasoselectivity [2]: highly pulmonary vasoselective; reduction of transpulmonary gradient and pulmonary vascular resistance compared with sodium nitroprusside and prostacyclin ([2]; in vivo and clinical tests): as effective as sodium nitroprusside and prostacyclin; effect on pulmonary hypertension [3]: reverse pulmonary hypertension
3 | CN1[C@@H]2CC[C@H]1C[C@@H](OC(=O)C(CO)c1ccccc1)C2 (some centres unmarked) [atropine] | 62% | 46% | –
4 | O=C=O [CO2, carbon dioxide] | – | – | effect on airways [4]: relax both central and peripheral airways
